We go through 24 compounds from ChEMBL document CHEMBL5528026, “Structural modification of C2-substituents on 1,4-bis(arylsulfonamido)benzene or naphthalene-N,N'-diacetic acid derivatives as potent inhibitors of the Keap1-Nrf2 protein-protein interaction” (Eur J Med Chem, 2024).

The target of assay [1] is T1, Keap1/Nrf2 (Homo sapiens, UniProt Q14145). The assay is described as follows: Inhibition of Keap1-Nrf2 protein-protein interaction (unknown origin) assessed as inhibition constant by fluorescence polarization assay.
T1 sequence (Q16236 whole entry): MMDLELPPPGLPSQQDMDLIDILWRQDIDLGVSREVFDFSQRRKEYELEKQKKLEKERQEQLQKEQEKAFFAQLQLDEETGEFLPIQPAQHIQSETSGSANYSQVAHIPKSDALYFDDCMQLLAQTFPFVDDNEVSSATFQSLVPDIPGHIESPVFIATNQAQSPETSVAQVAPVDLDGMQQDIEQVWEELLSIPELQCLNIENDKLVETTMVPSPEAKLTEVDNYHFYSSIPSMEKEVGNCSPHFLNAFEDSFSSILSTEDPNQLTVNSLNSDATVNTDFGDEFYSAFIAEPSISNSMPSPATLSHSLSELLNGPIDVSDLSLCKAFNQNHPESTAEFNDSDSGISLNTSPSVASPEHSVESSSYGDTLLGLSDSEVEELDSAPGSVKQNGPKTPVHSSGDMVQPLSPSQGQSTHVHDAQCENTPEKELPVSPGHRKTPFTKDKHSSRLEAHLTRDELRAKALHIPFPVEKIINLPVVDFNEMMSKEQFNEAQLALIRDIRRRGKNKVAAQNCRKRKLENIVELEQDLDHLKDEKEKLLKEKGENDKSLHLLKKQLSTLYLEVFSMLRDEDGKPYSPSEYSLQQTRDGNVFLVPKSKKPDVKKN
T1 sequence (Q14145 whole entry): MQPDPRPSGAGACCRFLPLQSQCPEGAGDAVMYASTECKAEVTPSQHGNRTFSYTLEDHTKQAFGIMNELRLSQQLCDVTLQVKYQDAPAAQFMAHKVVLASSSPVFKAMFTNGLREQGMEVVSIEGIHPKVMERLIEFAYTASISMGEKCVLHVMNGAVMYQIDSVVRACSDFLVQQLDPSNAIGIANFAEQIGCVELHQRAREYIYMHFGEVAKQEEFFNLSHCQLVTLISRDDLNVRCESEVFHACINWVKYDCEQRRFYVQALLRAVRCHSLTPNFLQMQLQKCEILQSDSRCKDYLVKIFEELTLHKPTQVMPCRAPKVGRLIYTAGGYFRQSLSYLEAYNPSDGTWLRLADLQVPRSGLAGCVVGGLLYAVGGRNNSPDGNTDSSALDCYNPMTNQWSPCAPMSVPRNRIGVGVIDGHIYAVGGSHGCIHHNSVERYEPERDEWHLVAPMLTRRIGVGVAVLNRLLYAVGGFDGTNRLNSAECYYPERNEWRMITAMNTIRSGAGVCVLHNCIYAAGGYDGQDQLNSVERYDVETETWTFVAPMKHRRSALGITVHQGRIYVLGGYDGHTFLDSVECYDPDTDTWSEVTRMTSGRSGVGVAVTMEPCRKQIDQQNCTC
The target of assay [2] is T1, Keap1/Nrf2. Put plainly: Inhibition of Keap1-Nrf2 protein-protein interaction (unknown origin) by fluorescence polarization assay.
Assay [3] has as its target T1, Keap1/Nrf2. Put plainly: (§1) Inhibition of Keap1-Nrf2 protein-protein interaction (unknown origin) assessed as inhibition constant by TR-FRET assay. (In TR-FRET formats the signal depends on donor and acceptor labels being close together.)
Assay [4] deals with T2, Keap1/Nrf2 (Homo sapiens, UniProt Q16236+Q14145). Described as §1.
Target sequence in this assay (Q16236 whole entry): as the sequence (Q16236 whole entry) above
Target sequence in this assay (Q14145 whole entry): as the sequence (Q14145 whole entry) above
Assay [5] concerns the target T2, Keap1/Nrf2. Put plainly: Inhibition of Keap1-Nrf2 protein-protein interaction in human NCM460D cells assessed as fold induction at 1 to 100 uM in NQO1 mRNA level incubated for 24 hrs by RT-qPCR analysis. The assay is classed as cell-based. The following applies: dose 1-100 µM. (In general: Real-time PCR tracks product formation cycle by cycle.)
Target sequence in this assay (Q14145 whole entry, looked up): as the sequence (Q14145 whole entry) above
Target sequence in this assay (Q16236 whole entry, looked up): as the sequence (Q16236 whole entry) above
The target of assay [6] is T1, Keap1/Nrf2. Put plainly: Inhibition of Keap1-Nrf2 protein-protein interaction (unknown origin) by TR-FRET assay.

A word on the Ki: it is a measure of affinity in units of concentration, obtained from inhibition or displacement. The IC50 is the concentration that inhibits the measured activity by half. Low values mean inhibition by little substance, high ones a need for much substance. On to `Cc1ccc(S(=O)(=O)N(CC(=O)O)c2ccc(N(CC(=O)O)S(=O)(=O)c3ccc(C)cc3)c(OCCN3C(=O)c4ccccc4C3=O)c2)cc1`, for which the Ki at Keap1/Nrf2 [1] came out at 30.6 nM. For the same compound, 228 nM corresponded to half-maximal inhibition against Keap1/Nrf2 [2] (IC50).
Take `COc1ccc(S(=O)(=O)N(CC(=O)O)c2ccc(N(CC(=O)O)S(=O)(=O)c3ccc(OC)cc3)c(OC(=O)c3ccccc3)c2)cc1`: the Ki on Keap1/Nrf2 [3] was determined as 351 nM. This compound displayed a concentration for half-maximal inhibition (IC50) against Keap1/Nrf2 [2] of 1780 nM.
With `COc1ccc(S(=O)(=O)N(CC(=O)O)c2ccc(N(CC(=O)O)S(=O)(=O)c3ccc(OC)cc3)c(OCC(=O)N3CCN(C)CC3)c2)cc1`, the Ki on Keap1/Nrf2 [3] amounted to 452 nM. Further, the half-maximal inhibitory concentration (IC50) against Keap1/Nrf2 [2] stood at 2260 nM.
Regarding `Cc1ccc(S(=O)(=O)N(CC(=O)O)c2ccc(N(CC(=O)O)S(=O)(=O)c3ccc(C)cc3)c(OCc3nnn[nH]3)c2)cc1`, the Ki at Keap1/Nrf2 [1] stood at 68 nM. On Keap1/Nrf2 [2], this compound returned a half-inhibitory concentration (IC50) of 408 nM.
On to `Cc1ccc(S(=O)(=O)N(CC(=O)O)c2ccc(N(CC(=O)O)S(=O)(=O)c3ccc(C)cc3)c(O[C@H](C)C(=O)O)c2)cc1`, for which the inhibition constant Ki on Keap1/Nrf2 [4] was determined as 41.4 nM.
Consider `COc1ccc(S(=O)(=O)N(CC(=O)O)c2ccc(N(CC(=O)O)S(=O)(=O)c3ccc(OC)cc3)c(OS(=O)(=O)c3ccc(-c4ccccc4)cc3)c2)cc1`, for which, at Keap1/Nrf2 [3], the inhibition constant Ki came out at 78.3 nM.
In the case of `COc1ccc(S(=O)(=O)N(CC(=O)O)c2ccc(N(CC(=O)O)S(=O)(=O)c3ccc(OC)cc3)c(OS(=O)(=O)Cc3ccccc3)c2)cc1`, the Ki on Keap1/Nrf2 [3] is 82 nM.
Turning to `COc1ccc(S(=O)(=O)N(CC(=O)O)c2ccc(N(CC(=O)O)S(=O)(=O)c3ccc(OC)cc3)c(OCC(=O)N3CCOCC3)c2)cc1`, on Keap1/Nrf2 [3], the Ki turned out to be 66.1 nM. On Keap1/Nrf2 [2], this compound came in with a concentration for half-maximal inhibition (IC50) of 399 nM.
With `Cc1ccc(S(=O)(=O)N(CC(=O)O)c2ccc(N(CC(=O)O)S(=O)(=O)c3ccc(C)cc3)c(OCC(=O)N3CCOCC3)c2)cc1`, at Keap1/Nrf2 [1], the Ki stood at 116 nM. The same compound showed an IC50 on Keap1/Nrf2 [2] of 641 nM.
As for `Cc1ccc(S(=O)(=O)N(CC(=O)O)c2ccc(N(CC(=O)O)S(=O)(=O)c3ccc(C)cc3)c(OS(=O)(=O)c3c(C)cc(C)cc3C)c2)cc1`, the Ki on Keap1/Nrf2 [1] was found to be 67.6 nM. Half-maximal inhibition against Keap1/Nrf2 [2] (IC50) was put at 407 nM.
`Cc1ccc(S(=O)(=O)N(CC(=O)O)c2cc(OCC(=O)O)c(N(CC(=O)O)S(=O)(=O)c3ccc(C)cc3)c3ccccc23)cc1`: the FC at Keap1/Nrf2 [5] was 15.
As to `COc1ccc(S(=O)(=O)N(CC(=O)O)c2ccc(N(CC(=O)O)S(=O)(=O)c3ccc(OC)cc3)c(OS(=O)(=O)c3c(C)cc(C)cc3C)c2)cc1`, at Keap1/Nrf2 [3], the Ki came to 50.7 nM.
In the case of `Cc1ccc(S(=O)(=O)N(CC(=O)O)c2ccc(N(CC(=O)O)S(=O)(=O)c3ccc(C)cc3)c(OCc3ccc(F)cc3)c2)cc1`, on Keap1/Nrf2 [1], the inhibitory constant (Ki) came out at 76.3 nM.
Regarding `COc1ccc(S(=O)(=O)N(CC(=O)O)c2ccc(N(CC(=O)O)S(=O)(=O)c3ccc(OC)cc3)c(OS(=O)(=O)c3ccccc3)c2)cc1`, at Keap1/Nrf2 [3], the inhibitory constant (Ki) turned out to be 74.2 nM. The compound further came in with a concentration for half-maximal inhibition (IC50) at Keap1/Nrf2 [2] of 439 nM.
For the compound `COc1ccc(S(=O)(=O)N(CC(=O)O)c2ccc(N(CC(=O)O)S(=O)(=O)c3ccc(OC)cc3)c(OCCN3CCOCC3)c2)cc1`, the inhibition constant (Ki) at Keap1/Nrf2 [3] came out at 500 nM. This compound displayed an IC50 on Keap1/Nrf2 [2] of 2500 nM.
`Cc1ccc(S(=O)(=O)N(CC(=O)O)c2ccc(N(CC(=O)O)S(=O)(=O)c3ccc(C)cc3)c(O[C@@H](C)C(=O)O)c2)cc1`: the IC50 amounted to 72.2 nM against Keap1/Nrf2 [6] and 136 nM against Keap1/Nrf2 [2]. Also, the inhibition constant Ki on Keap1/Nrf2 [1] turned out to be 11.6 nM; on Keap1/Nrf2 [3] it was 32.2 nM.
For `Cc1ccc(S(=O)(=O)N(CC(=O)O)c2ccc(N(CC(=O)O)S(=O)(=O)c3ccc(C)cc3)c(NCC(=O)O)c2)cc1`, the Ki on Keap1/Nrf2 [1] is 351 nM. The 50% inhibitory concentration (IC50) on Keap1/Nrf2 [2] came to 1780 nM.
For `COc1ccc(S(=O)(=O)N(CC(=O)O)c2ccc(N(CC(=O)O)S(=O)(=O)c3ccc(OC)cc3)c(OCC(=O)Nc3ccccc3)c2)cc1`, the inhibition constant Ki on Keap1/Nrf2 [3] was determined as 1570 nM. Also, on Keap1/Nrf2 [2], the half-maximal inhibitory concentration (IC50) came out at 7680 nM.
On to `COc1ccc(S(=O)(=O)N(CC(=O)O)c2ccc(N(CC(=O)O)S(=O)(=O)c3ccc(OC)cc3)c(OCC(=O)N3CCC(c4ccccc4)CC3)c2)cc1`, for which, at Keap1/Nrf2 [3], the Ki worked out at 141 nM. This compound also came in with an IC50 against Keap1/Nrf2 [2] of 760 nM.
As to `COc1ccc(S(=O)(=O)N(CC(=O)O)c2ccc(N(CC(=O)O)S(=O)(=O)c3ccc(OC)cc3)c(C(=O)OCc3ccccc3)c2)cc1`, at Keap1/Nrf2 [3], the Ki was found to be 316 nM. Moreover, the IC50 on Keap1/Nrf2 [2] came out at 1610 nM.
Turning to `Cc1ccc(S(=O)(=O)N(CC(=O)O)c2cc(CCC(=O)O)c(N(CC(=O)O)S(=O)(=O)c3ccc(C)cc3)c3ccccc23)cc1`, the IC50 against Keap1/Nrf2 [6] stood at 22.3 nM; at Keap1/Nrf2 [2], 69.3 nM. The inhibitory constant (Ki) was roughly 1 nM at Keap1/Nrf2 [1] and 9.1 nM on Keap1/Nrf2 [3]. In addition, the FC at Keap1/Nrf2 [5] was found to be 8.
Consider `Cc1ccc(S(=O)(=O)N(CC(=O)O)c2ccc(N(CC(=O)O)S(=O)(=O)c3ccc(C)cc3)c(CCC(=O)O)c2)cc1`, for which the Ki at Keap1/Nrf2 [1] worked out at 100 nM. Also, the IC50 against Keap1/Nrf2 [2] worked out at 565 nM.
Take `COc1ccc(S(=O)(=O)N(CC(=O)O)c2ccc(N(CC(=O)O)S(=O)(=O)c3ccc(OC)cc3)c(OCC(=O)c3ccccc3)c2)cc1`: the inhibition constant Ki on Keap1/Nrf2 [3] was 106 nM. The half-inhibitory concentration (IC50) against Keap1/Nrf2 [2] is 593 nM.
The corresponding values for `COc1ccc(S(=O)(=O)N(CC(=O)O)c2ccc(N(CC(=O)O)S(=O)(=O)c3ccc(OC)cc3)c(C(=O)Oc3ccccc3)c2)cc1` are 780 nM and 3850 nM.
